This is an account of results in US20110160279A1, “METHODS FOR TREATMENT AND PREVENTION OF OTOTOXICITY BY siRNA” (BOARD OF TRUSTEES OF SOUTHERN ILLINOIS UNIVERSITY, priority 2007, published 2011).

“Also recorded” adds a separate entry of the source.

In one data set the test system is outer hair cells. The experiment in a line: Outer hair cell loss by scanning electron microscopy. The class given is in vivo, rat. Conditions: cisplatin 16 mg/kg i.p., vehicle-pretreated cochlea, 3 days, N=3. Here is the method: Immediately after completion of follow-up ABRs, deeply sedated rats were euthanized, their cochleae harvested and processed as described in (Kamimura et al, 1999). Sputter coated cochleae were then viewed and photographed with a Hitachi S-500 scanning electron microscope (Hitachi Ltd., Tokyo, Japan).
Hair cell counts were performed using a modified version of the method used by (Korver et al. 2002). Two representative areas of the basal turn and hook portion were photographed. In each area, inner or outer hair cells were counted in an area that was 10 pillar cell heads in length.
The results were shown, as the average survival percentage rates compared to the control group. Statistical analysis was performed using Student's t-test.
Five rats were administered either vehicle or TRPV1 siRNA (3 μl) by round window application. The rats served as their own controls since one cochlea was treated with vehicle and the other with siRNA.

In a further data set the test system is gp91. The experiment in a line: Real time RT-PCR of gp91 mRNA in UB/OC-1 cells. In kind it is cell-based, mouse. Conditions: cisplatin 2.5 μM. Here is the method: (§1) Immortalized organ of Corti cells derived from the mouse, UB/OC-1 cells, were obtained from Dr. Matthew Holley (Institute of Molecular Physiology, Addison Building, Western Bank, Sheffield, UK) and cultured in RPMI 1640 supplemented with 10% Fetalclone II (Hyclone, Logan, Utah) serum and penicillin-streptomycin. Cultures were grown in a 33° C. incubator in 10% CO2.
(§2) RNA was isolated by adding 1 ml TR1 reagent to 100 mg of cochlear or cortical tissue or 0.5 ml TR1 reagent (Sigma, St. Louis, Mo.) per well of each six well plate, according to the manufacturer's instructions.
(§3) Real time reverse transcriptase polymerase chain reaction (RT-PCR): One microgram of total RNA was converted to cDNA using iScript cDNA Synthesis Kit (Bio-Rad, Hercules, Calif.), and qRTPCR was performed as described by (Mukherjea et al, 2006). Gene specific primer pairs were used for the various reactions and mRNA expression levels were normalized to the levels of GAPDH house keeping gene.
(§4) The rodent set of primers and siRNA were based on the homologous sequences in the rat and mouse cDNA sequences. The primers were purchased from Sigma Genosys (St. Louis, Mo.). Purified siRNA duplexes were purchased from Qiagen (Valencia, Calif.).

For the next data set, the system named is UB-OC1 cells. The experiment in a line: Apoptosis by TUNEL staining in UB-OC1 cells. In kind it is cell-based, mouse. Particulars: cisplatin 20 μM, 24 h. Here is the method:
as §1
Frag-EL DNA fragmentation kit and H2DCFDA dye was purchased from (Calbiochem, San Diego, Calif.). TRPV1 antibody (Neuromics, Edina, Minn.) and secondary goat anti rabbit antibody was purchased from Santa Cruz Biotechnology (Santa Cruz, Calif.).
(§5) The increases in these proteins were attenuated by capsazepine (10 μM), implicating TRPV1 in this process.

Another data set deals with Rac1. In words: Real time RT-PCR of Rac1 mRNA in UB/OC-1 cells. In kind it is cell-based, mouse. Conditions: cisplatin 2.5 μM. On the procedure: as §1, §2, §3, §4
Another data set deals with p22. In words: Real time RT-PCR of p22 transcript in rat cochlea. In kind it is in vivo. Particulars: cisplatin (data not shown). On the procedure:
as §2, §3
The rodent set of primers and siRNA were based on the homologous sequences in the rat and mouse cDNA sequences. The primers were purchased from Sigma Genosys (St. Louis, Mo.). Purified siRNA duplexes were purchased from Qiagen (Valencia, Calif.). Primers were as follows: Rodent NOX3 (sense): 5′-[…]-3′ (SEQ ID NO: 9) (antisense): 5′-[…]-3′ (SEQ ID NO: 10), Rodent-GAPDH (sense): 5′-[…]-3′ (SEQ ID NO: 11) (antisense): 5′-[…]-3′ (SEQ ID NO: 12), Rodent TRPV1 (sense): 5′-[…]-3′ (SEQ ID NO: 13), (antisense): 5-[…]-3′ (SEQ ID NO: 14), Rodent Rac-1 (sense): 5′-[…]-3′ (SEQ ID NO: 15), (antisense): 5′-[…]-3′ (SEQ ID NO: 16), Rodent gp-91 (sense) 5′-[…]-3′ (SEQ ID NO: 17), (antisense): 5′-[…]-3′ (SEQ ID NO: 18), and Rat p22 (sense): 5′-[…]-3′ (SEQ ID NO: 19), (antisense) 5′-[…]-3′ (SEQ ID NO: 20) […]

In the next data set the test system is TRPV1 mRNA. The experiment in a line: Real time RT-PCR of TRPV1 mRNA in UB/OC-1 cells. The class given is cell-based, mouse. Particulars: cisplatin 2.5 μM, 24 h. Here is the method: as §1, §2, §3, §4
The subject of the next data set is Bax. In words: Bax protein expression in UB/OC-1 cells. The class given is cell-based, mouse. Particulars: cisplatin, 24 hr. On the procedure:
as §5

In the case of `N.N.[Cl][Pt][Cl]` [cisplatin], in the data set with outer hair cells, the “percentage of outer hair cell loss, base” value is 42±9 percentage; the “percentage of outer hair cell loss, hook” value came out at 72±14 percentage; the “percentage of outer hair cell loss, middle turn” value was 22±2.7 percentage. The “increase in gp91 mRNA” value in the data set on gp91 was 2.8 fold. In addition, the “apoptotic cells (TUNEL)” value in the data set with UB-OC1 cells is on record as roughly 80%. The “increase in Rac1 mRNA” value in the data set with Rac1 is 2.1 fold. Further, in the data set on p22, the “increase in p22 expression” value is listed as 8±1 fold. The “change in TRPV1 mRNA” value in the data set on TRPV1 mRNA was “significant increase; also recorded: Three fold increase”. For the same molecule, the Bax protein entry in the data set on Bax is reported as “increases”.
